Test results reported in ChEMBL document CHEMBL4316596, “Antimicrobial Peptides with High Proteolytic Resistance for Combating Gram-Negative Bacteria” (J Med Chem, 2019).
Values after ≈ are worked out from the molar mass of the structure shown.

How the values were obtained:
Klebsiella pneumoniae [1] = assay: Bactericidal activity against Klebsiella pneumoniae incubated for 4 hrs followed by culture spread on agar plates and cultured overnight; assay type: functional; details: read-out: MBC>99.9
Pseudomonas aeruginosa [2] = assay: Antimicrobial activity against Pseudomonas aeruginosa ATCC 27853 after 24 hrs by NCCLS-protocol based assay; assay type: functional; details: ATCC 27853, 24 h
Escherichia coli [3] = assay: Bactericidal activity against Escherichia coli K88 incubated for 4 hrs followed by culture spread on agar plates and cultured overnight; assay type: functional; details: K88, 4 h, read-out: MBC>99.9
Pseudomonas aeruginosa [4] = assay: Bactericidal activity against Pseudomonas aeruginosa CICC 21630 clinical isolates incubated for 4 hrs followed by culture spread on agar plates and cultured overnight; assay type: functional; details: CICC 21630, 4 h, read-out: MBC>99.9
Salmonella typhimurium [5] = assay: Bactericidal activity against Salmonella typhimurium C7731 incubated for 4 hrs followed by culture spread on agar plates and cultured overnight; assay type: functional, Salmonella enterica subsp. enterica serovar Typhimurium; details: Salmonella enterica, C7731, 4 h; read-out: MBC>99.9
Acinetobacter baumannii [6] = assay: Antimicrobial activity against Acinetobacter baumannii after 24 hrs by NCCLS-protocol based assay; assay type: functional
[7] = Antimicrobial activity against Salmonella pullorum C7913 after 24 hrs by NCCLS-protocol based assay; assay type: functional, Salmonella enterica subsp. enterica serovar Pullorum; details: Salmonella enterica, C7913, 24 h
Pseudomonas aeruginosa [8] = assay: Bactericidal activity against Pseudomonas aeruginosa 26305 clinical isolates incubated for 4 hrs followed by culture spread on agar plates and cultured overnight; assay type: functional; details: Pseudomonas aeruginosa, 26305, 4 h; read-out: MBC>99.9
Escherichia coli [9] = assay: Antimicrobial activity against Escherichia coli UB1005 after 24 hrs by NCCLS-protocol based assay; assay type: functional; details: UB1005, 24 h
Pseudomonas aeruginosa [10] = assay: Antimicrobial activity against Pseudomonas aeruginosa PAO1 after 24 hrs by NCCLS-protocol based assay; assay type: functional; details: PAO1, 24 h
Pseudomonas aeruginosa [11] = assay: Antimicrobial activity against Pseudomonas aeruginosa 25349 clinical isolates after 24 hrs by NCCLS-protocol based assay; assay type: functional; details: Pseudomonas aeruginosa, 25349, 24 h
Escherichia coli [12] = assay: Antimicrobial activity against Escherichia coli K88 after 24 hrs by NCCLS-protocol based assay; assay type: functional; details: K88, 24 h
Acinetobacter baumannii [13] = assay: Bactericidal activity against Acinetobacter baumannii incubated for 4 hrs followed by culture spread on agar plates and cultured overnight; assay type: functional; details: read-out: MBC>99.9
Klebsiella pneumoniae [14] = assay: Antimicrobial activity against Klebsiella pneumoniae after 24 hrs by NCCLS-protocol based assay; assay type: functional
Pseudomonas aeruginosa [15] = assay: Bactericidal activity against Pseudomonas aeruginosa ATCC 27853 incubated for 4 hrs followed by culture spread on agar plates and cultured overnight; assay type: functional; details: ATCC 27853, 4 h, read-out: MBC>99.9
Escherichia coli [16] = assay: Antimicrobial activity against Escherichia coli 078 after 24 hrs by NCCLS-protocol based assay; assay type: functional; details: Escherichia coli, 078, 24 h
Pseudomonas aeruginosa [17] = assay: Bactericidal activity against Pseudomonas aeruginosa CICC 21625 clinical isolates incubated for 4 hrs followed by culture spread on agar plates and cultured overnight; assay type: functional; details: CICC 21625, 4 h, read-out: MBC>99.9
Escherichia coli [18] = assay: Bactericidal activity against Escherichia coli 078 incubated for 4 hrs followed by culture spread on agar plates and cultured overnight; assay type: functional; details: Escherichia coli, 078, 4 h; read-out: MBC>99.9
Pseudomonas aeruginosa [19] = assay: Antimicrobial activity against Pseudomonas aeruginosa 26305 clinical isolates after 24 hrs by NCCLS-protocol based assay; assay type: functional; details: Pseudomonas aeruginosa, 26305, 24 h
Escherichia coli [20] = assay: Antimicrobial activity against Escherichia coli ATCC 25922 after 24 hrs by NCCLS-protocol based assay; assay type: functional; details: ATCC 25922, 24 h
Salmonella typhimurium [21] = assay: Antimicrobial activity against Salmonella typhimurium C7731 after 24 hrs by NCCLS-protocol based assay; assay type: functional, Salmonella enterica subsp. enterica serovar Typhimurium; details: Salmonella enterica, C7731, 24 h
Escherichia coli [22] = assay: Bactericidal activity against Escherichia coli UB1005 incubated for 4 hrs followed by culture spread on agar plates and cultured overnight; assay type: functional; details: UB1005, 4 h, read-out: MBC>99.9
Salmonella typhimurium [23] = assay: Bactericidal activity against Salmonella typhimurium ATCC 14028 incubated for 4 hrs followed by culture spread on agar plates and cultured overnight; assay type: functional, Salmonella enterica subsp. enterica serovar Typhimurium; details: Salmonella enterica, ATCC 14028, 4 h; read-out: MBC>99.9
Pseudomonas aeruginosa [24] = assay: Bactericidal activity against Pseudomonas aeruginosa 25349 clinical isolates incubated for 4 hrs followed by culture spread on agar plates and cultured overnight; assay type: functional; details: Pseudomonas aeruginosa, 25349, 4 h; read-out: MBC>99.9
[25] = Bactericidal activity against Salmonella pullorum C7913 incubated for 4 hrs followed by culture spread on agar plates and cultured overnight; assay type: functional, Salmonella enterica subsp. enterica serovar Pullorum; details: Salmonella enterica, C7913, 4 h; read-out: MBC>99.9
Escherichia coli [26] = assay: Antimicrobial activity against Escherichia coli K99 after 24 hrs by NCCLS-protocol based assay; assay type: functional; details: K99, 24 h
Pseudomonas aeruginosa [27] = assay: Antimicrobial activity against Pseudomonas aeruginosa CICC 21630 clinical isolates after 24 hrs by NCCLS-protocol based assay; assay type: functional; details: CICC 21630, 24 h
Salmonella typhimurium [28] = assay: Antimicrobial activity against Salmonella typhimurium ATCC 14028 after 24 hrs by NCCLS-protocol based assay; assay type: functional, Salmonella enterica subsp. enterica serovar Typhimurium; details: Salmonella enterica, ATCC 14028, 24 h
Escherichia coli [29] = assay: Bactericidal activity against Escherichia coli ATCC 25922 incubated for 4 hrs followed by culture spread on agar plates and cultured overnight; assay type: functional; details: ATCC 25922, 4 h, read-out: MBC>99.9
Escherichia coli [30] = assay: Bactericidal activity against Escherichia coli K99 incubated for 4 hrs followed by culture spread on agar plates and cultured overnight; assay type: functional; details: K99, 4 h, read-out: MBC>99.9
Pseudomonas aeruginosa [31] = assay: Bactericidal activity against Pseudomonas aeruginosa PAO1 incubated for 4 hrs followed by culture spread on agar plates and cultured overnight; assay type: functional; details: PAO1, 4 h, read-out: MBC>99.9
Pseudomonas aeruginosa [32] = assay: Antimicrobial activity against Pseudomonas aeruginosa CICC 21625 clinical isolates after 24 hrs by NCCLS-protocol based assay; assay type: functional; details: CICC 21625, 24 h

Row | MIC95 (Pseudomonas aeruginosa [2]) | MIC95 (Acinetobacter baumannii [6]) | MIC95 [7] | MIC95 (Escherichia coli [9]) | MIC95 (Pseudomonas aeruginosa [10]) | MIC95 (Pseudomonas aeruginosa [11]) | MIC95 (Escherichia coli [12]) | MIC95 (Klebsiella pneumoniae [14]) | MIC95 (Escherichia coli [16]) | MIC95 (Pseudomonas aeruginosa [19]) | MIC95 (Escherichia coli [20]) | Molecule | MBC (Klebsiella pneumoniae [1]) | MBC (Escherichia coli [3]) | MBC (Pseudomonas aeruginosa [4]) | MBC (Salmonella typhimurium [5]) | MBC (Pseudomonas aeruginosa [8]) | MBC (Acinetobacter baumannii [13]) | MBC (Pseudomonas aeruginosa [15]) | MBC (Pseudomonas aeruginosa [17]) | MBC (Escherichia coli [18]) | other results
1 | 0.125 µM (≈ 0.0732 µg/mL) | 0.0625 µM (≈ 0.0366 µg/mL) | 0.0625 µM (≈ 0.0366 µg/mL) | 0.0625 µM (≈ 0.0366 µg/mL) | 0.0625 µM (≈ 0.0366 µg/mL) | 0.25 µM (≈ 0.146 µg/mL) | 0.0625 µM (≈ 0.0366 µg/mL) | 0.0625 µM (≈ 0.0366 µg/mL) | 0.0625 µM (≈ 0.0366 µg/mL) | > 64 µM | 0.0625 µM (≈ 0.0366 µg/mL) | NCC[C@H](O)C(=O)N[C@@H]1C[C@H](N)[C@@H](O[C@H]2O[C@H](CN)[C@@H](O)[C@H](O)[C@H]2O)[C@H](O)[C@H]1O[C@H]1O[C@H](CO)[C@@H](O)[C@H](N)[C@H]1O [AMIKACIN] | 0.125 µM (≈ 0.0732 µg/mL) | 0.0625 µM (≈ 0.0366 µg/mL) | 0.125 µM (≈ 0.0732 µg/mL) | 0.125 µM (≈ 0.0732 µg/mL) | > 64 µM | 0.125 µM (≈ 0.0732 µg/mL) | 0.25 µM (≈ 0.146 µg/mL) | 0.25 µM (≈ 0.146 µg/mL) | 0.0625 µM (≈ 0.0366 µg/mL) | MIC95 (Salmonella typhimurium [21]): 0.0625 µM (≈ 0.0366 µg/mL); MBC (Escherichia coli [22]): 0.125 µM (≈ 0.0732 µg/mL); MBC (Salmonella typhimurium [23]): 0.125 µM (≈ 0.0732 µg/mL); MBC (Pseudomonas aeruginosa [24]): 0.25 µM (≈ 0.146 µg/mL); MBC [25]: 0.0625 µM (≈ 0.0366 µg/mL); MIC95 (Escherichia coli [26]): 0.0625 µM (≈ 0.0366 µg/mL); MIC95 (Pseudomonas aeruginosa [27]): 0.125 µM (≈ 0.0732 µg/mL); MIC95 (Salmonella typhimurium [28]): 0.125 µM (≈ 0.0732 µg/mL); MBC (Escherichia coli [29]): 0.125 µM (≈ 0.0732 µg/mL); MBC (Escherichia coli [30]): 0.125 µM (≈ 0.0732 µg/mL); MBC (Pseudomonas aeruginosa [31]): 0.125 µM (≈ 0.0732 µg/mL); MIC95 (Pseudomonas aeruginosa [32]): 0.125 µM (≈ 0.0732 µg/mL)
2 | > 64 µM | 4 µM | 32 µM | 16 µM | > 64 µM | > 64 µM | 16 µM | > 64 µM | 32 µM | > 64 µM | 16 µM | H-LKPLLKPLLKPLLKPL-NH2 | > 64 µM | 16 µM | > 64 µM | > 64 µM | > 64 µM | 8 µM | > 64 µM | > 64 µM | 64 µM | MIC95 (Salmonella typhimurium [21]): > 64 µM; MBC (Escherichia coli [22]): 64 µM; MBC (Salmonella typhimurium [23]): > 64 µM; MBC (Pseudomonas aeruginosa [24]): > 64 µM; MBC [25]: 64 µM; MIC95 (Escherichia coli [26]): 16 µM; MIC95 (Pseudomonas aeruginosa [27]): > 64 µM; MIC95 (Salmonella typhimurium [28]): > 64 µM; MBC (Escherichia coli [29]): 32 µM; MBC (Escherichia coli [30]): 32 µM; MBC (Pseudomonas aeruginosa [31]): > 64 µM; MIC95 (Pseudomonas aeruginosa [32]): > 64 µM
3 | > 64 µM | 8 µM | 16 µM | 16 µM | > 64 µM | > 64 µM | 4 µM | 32 µM | 16 µM | > 64 µM | 16 µM | H-IRPIIRPIIRPIIRPI-NH2 | 32 µM | 8 µM | > 64 µM | 32 µM | > 64 µM | 8 µM | > 64 µM | > 64 µM | 32 µM | MIC95 (Salmonella typhimurium [21]): 16 µM; MBC (Escherichia coli [22]): 16 µM; MBC (Salmonella typhimurium [23]): 16 µM; MBC (Pseudomonas aeruginosa [24]): > 64 µM; MBC [25]: 16 µM; MIC95 (Escherichia coli [26]): 8 µM; MIC95 (Pseudomonas aeruginosa [27]): > 64 µM; MIC95 (Salmonella typhimurium [28]): 16 µM; MBC (Escherichia coli [29]): 32 µM; MBC (Escherichia coli [30]): 16 µM; MBC (Pseudomonas aeruginosa [31]): > 64 µM; MIC95 (Pseudomonas aeruginosa [32]): > 64 µM
4 | > 64 µM | > 64 µM | > 64 µM | > 64 µM | > 64 µM | > 64 µM | > 64 µM | > 64 µM | > 64 µM | > 64 µM | > 64 µM | H-VKPVVKPVVKPVVKPVVKPVVKPV-NH2 | > 64 µM | > 64 µM | > 64 µM | > 64 µM | > 64 µM | > 64 µM | > 64 µM | > 64 µM | > 64 µM | MIC95 (Salmonella typhimurium [21]): > 64 µM; MBC (Escherichia coli [22]): > 64 µM; MBC (Salmonella typhimurium [23]): > 64 µM; MBC (Pseudomonas aeruginosa [24]): > 64 µM; MBC [25]: > 64 µM; MIC95 (Escherichia coli [26]): > 64 µM; MIC95 (Pseudomonas aeruginosa [27]): > 64 µM; MIC95 (Salmonella typhimurium [28]): > 64 µM; MBC (Escherichia coli [29]): > 64 µM; MBC (Escherichia coli [30]): > 64 µM; MBC (Pseudomonas aeruginosa [31]): > 64 µM; MIC95 (Pseudomonas aeruginosa [32]): > 64 µM
